Results from patent US20260097091A1, “ADMINISTRATION OF GLUTATHIONE TRISULFIDE TO AMELIORATE PERIPHERAL NEUROPATHY” (The General Hospital Corporation, priority 2022, published 2026).

Tests used:
primary DRG neurons = primary DRG neurons exposed to paclitaxel: Sholl analysis and axonal mitochondria (NF200, MitoTracker); format: cell-based, mice; conditions: 500 nM PTNSSS with 100 nM paclitaxel for one hour
Description: Primary DRG neurons were prepared from 8 to 10-week old mice as described previously. Briefly, lumber DRG (L1 to L6) were isolated from mice and centrifuged at 176×g (1000 rpm) for 3 minutes. After aspirating the solution, DRG were incubated with Dispase-II Solution (Sigma-Aldrich, Cat No. SCM133) and collagenase type II (Worthington, Cat No. LS004176) for 70 minutes and with 0.25% trypsin for 5 minutes. Subsequently triturated by frame polished glass pipet, neurons were seeded on a 12-well plate with 15 mm coverslip. Cells were incubated in Neurobasal A-medium with 2% B27 supplement (Gibco, Cat No. 10889038), 1% penicillin/streptomycin, 1% Glutamax (Gibco, Cat No. 35050061), and nerve growth factor (Sigma Aldrich, Cat No. N6009) for 24 hours. After 24 hours, they were exposed to 100 nM of paclitaxel with or without 500 nM of GSSSG or PTNSSS for one hour and 50 nM of MitoTracker (Invitrogen, Cat No. M22426) for 30 minutes. After fixing by 4% paraformaldehyde for 10 minutes at room temperature, cells were immersed in 0.2% Triton X-100 in PBS for 7 minutes and washed by PBS. They were incubated with anti-NF200 antibody (1:400, mouse, Sigma-Aldrich, Cat No. N0142) overnight at 4° C. and with the secondary antibody (1:1000, donkey anti-mouse, Abcam, Cat No. ab150105) for one hour at room temperature. After being covered with fluoroshield mounting medium with DAPI (Sigma-Aldrich, Cat No. F6057), 9-10 cells per group (3 mice per group) were imaged on confocal microscopy (ZEISS LSM 800, Carl Zeiss, Thornwood, NY) using a 63× oil immersion objectives lens with 1,024×1,024 pixels image size.
Effects of PTNSSS and GSSSG on axonal integrity were examined in cultured murine primary DRG neurons incubated with paclitaxel. […] Morphology of neurons, the number, length, and branching of neurites, was analyzed by Sholl analysis implemented in ImageJ [30]. Sholl analysis draws equally spaced circles from the soma and counts the number of intersections between neurites and circles to quantify neuronal morphology (FIG. 8C).

[1] = water solubility of PTN-SSS; format: physicochemical
Description: (§1) PTN-SSS was synthesized and provided by Kyowa Hakko Bio Co., Ltd. The purity of PTN-SSS is 96.3%, and PTN-SSS is highly water soluble (>50 g/L). PTN-SSS and PTN (Toronto Research Chemicals, Toronto, ON, Canada) were suspended in distilled water. PTN-SSS is stable in solution at pH 4.0-9.0 at room temperature for at least 4 days. In the PTN-SSS study, distilled water was used as the vehicle alone.

[2] = stability of PTN-SSS in solution; format: physicochemical; conditions: pH 4.0-9.0 at room temperature
Description: as §1

[3] = tissue distribution of orally administered ^34S-labeled GSSSG by LC-MS/MS; format: in vivo, mice; conditions: 2 hours after oral 50 mg/kg
Description: To determine the tissue distribution of orally-administered GSSSG, ^34S-labelled GSSSG was administered by gavage to each of four mice. ^34S-labelled GSSSG was synthesized and provided by Kyowa Hakko Bio CO., LTD. Two hours after a single dose of ^34S-GSSSG, DRG, lumber spinal cord, brain, liver, and plasma were obtained and snap frozen for later analysis.
We examined whether administrated GSSSG via oral gavage reaches peripheral nervous system using liquid chromatography with tandem mass spectrometry (LC-MS/MS). Fifty mg/kg of ^34S-labeled GSSSG (in which the middle sulfur, that is a sulfane sulfur, was replaced to ^34S; G-^32S-^34S-^32S-G) was orally administered to mice. Two hours after administration, plasma and tissue from liver, brain, lumbar spinal cord, and lumbar DRG (L1 to L6) were collected and immediately frozen at −80° C. Tissues were homogenized with 5 mM of β-(4-hydroxyphenyl)ethyl iodoacetamide (HPE-IAM) (Santa Cruz, Cat No. SC-473766) and incubated for 20 minutes at 37° C. to promote HPE-IAM reaction that stabilizes persulfide residues. Proteins were removed by centrifugation at 15,000 g for 10 minutes at 4° C., and total protein concentration was measured by BCA assay. The supernatant was diluted by 0.1% formic acid for LC-MS/MS analysis. The amount of ^34S-labeled GSSSG was quantified in selective reaction monitoring (SRM) with precursor ion (647.14 m/z), product ion (389.1 m/z), and HCD (21 v) and normalized by protein concentration. The ratio of ^34S-labeled reactive sulfur species to endogenous (^32S) reactive sulfur species (GSSH, CysSSH, and CysSSSCys) were also calculated from their peak area measured by Dionex UltiMate 3000 RS UPLC-Orbitrap Exploris 480 mass spectrometer (Thermo Scientific Scientific, Waltham, MA, USA). In brief, samples were subjected to the UPLC system with a Hypersil Gold C-18 (100×2.1 mm, 3.0 μm, Thermo Fisher Scientific) column and they were eluted by using a linear methanol gradient of the mobile phase (0-90%, 15 minutes) in the presence of 0.1% formic acid at a flow rate of 0.2 ml/minutes at 40 degrees. The raw data were obtained by Compound Discoverer software 3.3. Molecular weight of reactive sulfur species combined with HPE-IAM were reported in previous studies.

water solubility [1]	stable in solution [2]	ratio of ^34S-labelled CysSSH to endogenous CysSSH ([3]; all 4 tissues)	ratio of ^34S-labelled CysSSSCys to endogenous CysSSSCys ([3]; all 4 tissues)	ratio of ^34S-labelled GSSH to endogenous GSSH ([3]; all 4 tissues (lumber DRG, lumber spinal cord, brain, liver))	average concentration of ^34S-labelled GSSSG in brain ([3]; mice)	average concentration of ^34S-labelled GSSSG in liver ([3]; mice)	average concentration of ^34S-labelled GSSSG in lumber DRG ([3]; mice)	average concentration of ^34S-labelled GSSSG in lumber spinal cord ([3]; mice)	Compound	axonal length (Sholl analysis) (primary DRG neurons)
> 50 g/L	at least 4 days								CC(C)(CO)[C@@H](O)C(=O)NCCC(=O)NCCSSSCCNC(=O)CCNC(=O)[C@H](O)C(C)(C)CO [PTN-SSS, pantethine trisulfide]	prevented the axonal shortening induced by paclitaxel
		more than 10 fold	more than 10 fold	more than 10 fold	142 pmol/mg protein	158 pmol/mg protein	415 pmol/mg protein	518 pmol/mg protein	N[C@@H](CCC(=O)N[C@@H](CS[34S]SC[C@H](NC(=O)CC[C@H](N)C(=O)O)C(=O)NCC(=O)O)C(=O)NCC(=O)O)C(=O)O [^34S-labelled GSSSG]	
